Measured values published in PubChem BioAssay (NCI).
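Growth conditions: 96-well plates. Treatment: test compound, 48 hours, 5 concentrations. Analysis: linear interpolation between bracketing concentrations; unreached endpoints set to highest concentration. At the GI50, growth is halved. TGI denotes the concentration required for complete inhibition of growth.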

Tests used:
Test in all cases: growth of human tumour cells (NCI), 48 h
IGROV1 ovarian = test system: IGROV1 ovarian
LOX IMVI melanoma = test system: LOX IMVI melanoma
SN12C renal = test system: SN12C renal
CCRF-CEM leukemia = test system: CCRF-CEM leukemia
SK-MEL-5 melanoma = test system: SK-MEL-5 melanoma
UACC-62 melanoma = test system: UACC-62 melanoma
PC-3 prostate = test system: PC-3 prostate
COLO 205 colon = test system: COLO 205 colon
MALME-3M melanoma = test system: MALME-3M melanoma
DU-145 prostate = test system: DU-145 prostate
MDA-MB-231 breast = test system: MDA-MB-231 breast
HOP-62 NSCLC = test system: HOP-62 NSCLC
MDA-MB-435 = test system: MDA-MB-435
SK-MEL-28 melanoma = test system: SK-MEL-28 melanoma
SNB-19 CNS = test system: SNB-19 CNS
OVCAR-4 ovarian = test system: OVCAR-4 ovarian
EKVX NSCLC = test system: EKVX NSCLC
SF-295 CNS = test system: SF-295 CNS
SNB-75 CNS = test system: SNB-75 CNS
RPMI-8226 leukemia = test system: RPMI-8226 leukemia
TK-10 renal = test system: TK-10 renal
M14 melanoma = test system: M14 melanoma
HCT-15 colon = test system: HCT-15 colon
HT29 colon = test system: HT29 colon
RXF 393 renal = test system: RXF 393 renal
UO-31 renal = test system: UO-31 renal
NCI-H522 lung = test system: NCI-H522 lung
U251 CNS = test system: U251 CNS
HL-60(TB) leukemia = test system: HL-60(TB) leukemia
A498 renal = test system: A498 renal
SF-268 CNS = test system: SF-268 CNS
HCT-116 colon = test system: HCT-116 colon
OVCAR-5 ovarian = test system: OVCAR-5 ovarian
NCI-H226 lung = test system: NCI-H226 lung
KM12 colon = test system: KM12 colon
HS 578T breast = test system: HS 578T breast
UACC-257 melanoma = test system: UACC-257 melanoma
HCC-2998 colon = test system: HCC-2998 colon
NCI-H23 lung = test system: NCI-H23 lung
BT-549 breast = test system: BT-549 breast
A549 NSCLC = test system: A549 NSCLC
SK-MEL-2 melanoma = test system: SK-MEL-2 melanoma
HOP-92 NSCLC = test system: HOP-92 NSCLC
SK-OV-3 ovarian = test system: SK-OV-3 ovarian
SF-539 CNS = test system: SF-539 CNS
NCI-H460 lung = test system: NCI-H460 lung
MCF7 breast = test system: MCF7 breast
SW-620 colon = test system: SW-620 colon
NCI/ADR-RES ovarian = test system: NCI/ADR-RES ovarian
ACHN renal = test system: ACHN renal
OVCAR-8 ovarian = test system: OVCAR-8 ovarian
T-47D breast = test system: T-47D breast
786-0 renal = test system: 786-0 renal
OVCAR-3 ovarian = test system: OVCAR-3 ovarian

## CN(C)CCCn1c2c(c3ccc(-c4ccn[nH]4)cc3c1=O)C(=O)c1ccccc1-2
IGROV1 ovarian
  GI50: 583 nM
  TGI: 2510 nM
LOX IMVI melanoma
  GI50: 104 nM
  TGI: 1460 nM
SN12C renal
  GI50: 249 nM
  TGI: 10000 nM
CCRF-CEM leukemia
  GI50: 29.1 nM
  TGI: 1040 nM
SK-MEL-5 melanoma
  GI50: 481 nM
  TGI: 16400 nM
UACC-62 melanoma
  GI50: 718 nM
  TGI: 18900 nM
PC-3 prostate
  GI50: 1210 nM
  TGI: 2720 nM
COLO 205 colon
  GI50: 4920 nM
  TGI: 23700 nM
MALME-3M melanoma
  GI50: 931 nM
  TGI: 2470 nM
DU-145 prostate
  GI50: 197 nM
  TGI: 10500 nM
MDA-MB-231 breast
  GI50: 1270 nM
  TGI: 2840 nM
HOP-62 NSCLC
  GI50: 181 nM
  TGI: 11600 nM
MDA-MB-435
  GI50: 10300 nM
  TGI: 23700 nM
SK-MEL-28 melanoma
  GI50: 2010 nM
  TGI: 5650 nM
SNB-19 CNS
  GI50: 332 nM
  TGI: 1820 nM
OVCAR-4 ovarian
  GI50: 1450 nM
  TGI: 4060 nM
EKVX NSCLC
  GI50: 2910 nM
  TGI: 20600 nM
SF-295 CNS
  GI50: 354 nM
  TGI: 13600 nM
SNB-75 CNS
  GI50: 1390 nM
  TGI: 17300 nM
RPMI-8226 leukemia
  GI50: 115 nM
  TGI: 1390 nM
TK-10 renal
  GI50: 2750 nM
  TGI: 18800 nM
M14 melanoma
  GI50: 1650 nM
  TGI: 13900 nM
HCT-15 colon
  GI50: 91.5 nM
  TGI: 1480 nM
HT29 colon
  GI50: 344 nM
  TGI: 1990 nM
RXF 393 renal
  GI50: 1660 nM
  TGI: 9570 nM
UO-31 renal
  GI50: 301 nM
  TGI: 1920 nM
NCI-H522 lung
  GI50: 836 nM
  TGI: 18000 nM
U251 CNS
  GI50: 183 nM
  TGI: 1570 nM
HL-60(TB) leukemia
  GI50: 34.6 nM
  TGI: 771 nM
A498 renal
  GI50: 10600 nM
  TGI: 30900 nM
SF-268 CNS
  GI50: 1850 nM
  TGI: 15000 nM
HCT-116 colon
  GI50: 391 nM
  TGI: 2230 nM
OVCAR-5 ovarian
  GI50: 1510 nM
  TGI: 5470 nM
NCI-H226 lung
  GI50: 273 nM
  TGI: 1530 nM
KM12 colon
  GI50: 527 nM
  TGI: 2080 nM
HS 578T breast
  GI50: 4900 nM
  TGI: 27100 nM
UACC-257 melanoma
  GI50: 12300 nM
  TGI: 29100 nM
HCC-2998 colon
  GI50: 10000 nM
  TGI: 24000 nM
NCI-H23 lung
  GI50: 243 nM
  TGI: 1830 nM
BT-549 breast
  GI50: 3100 nM
  TGI: 21100 nM
A549 NSCLC
  GI50: 57.8 nM
  TGI: 1420 nM
SK-MEL-2 melanoma
  GI50: 18200 nM
  TGI: 35800 nM
HOP-92 NSCLC
  GI50: 129 nM
  TGI: 10900 nM
SK-OV-3 ovarian
  GI50: 1210 nM
  TGI: 11300 nM
SF-539 CNS
  GI50: 1040 nM
  TGI: 6290 nM
NCI-H460 lung
  GI50: 36.3 nM
  TGI: 1550 nM
MCF7 breast
  GI50: 37.8 nM
  TGI: 1540 nM
SW-620 colon
  GI50: 204 nM
  TGI: 2170 nM
NCI/ADR-RES ovarian
  GI50: 1480 nM
  TGI: 4760 nM
ACHN renal
  GI50: 94.8 nM
  TGI: 1930 nM
OVCAR-8 ovarian
  GI50: 163 nM
  TGI: 2270 nM
T-47D breast
  GI50: 627 nM
  TGI: 20900 nM
786-0 renal
  GI50: 218 nM
  TGI: 1820 nM
OVCAR-3 ovarian
  GI50: 6090 nM
  TGI: 21500 nM
